Data set [1] is described as follows: Volume of distribution in Wistar rat. Conditions: in vivo. Format: ADME.
Data set [2] is described as follows: Tmax in human plasma. Format: ADME, cell-free.
Data set [3] can be described thus: AUC in Sprague-Dawley rat at 10 mg/kg, iv by LC-MS/MS analysis. Also noted: dose 10 mg/kg, route iv. Type of data set: ADME, organism-based. Conditions: in vivo.
The nature of data set [4]: Volume of distribution at steady state in iv dosed human. Conditions: in vivo, read-out: Vdss.
Data set [5] is described as follows: Inhibition of tyrosine kinase (unknown origin). Also noted: species or system Homo sapiens.
The nature of data set [6]: Half life in human plasma. Format: ADME, cell-free.
The nature of data set [7]: Plasma protein binding in human assessed as unbound fraction. Type of data set: ADME, cell-free.
Data set [8] has as its target T1, DNA polymerase alpha catalytic subunit (Homo sapiens, UniProt P09884).
T1 sequence (P09884 whole entry): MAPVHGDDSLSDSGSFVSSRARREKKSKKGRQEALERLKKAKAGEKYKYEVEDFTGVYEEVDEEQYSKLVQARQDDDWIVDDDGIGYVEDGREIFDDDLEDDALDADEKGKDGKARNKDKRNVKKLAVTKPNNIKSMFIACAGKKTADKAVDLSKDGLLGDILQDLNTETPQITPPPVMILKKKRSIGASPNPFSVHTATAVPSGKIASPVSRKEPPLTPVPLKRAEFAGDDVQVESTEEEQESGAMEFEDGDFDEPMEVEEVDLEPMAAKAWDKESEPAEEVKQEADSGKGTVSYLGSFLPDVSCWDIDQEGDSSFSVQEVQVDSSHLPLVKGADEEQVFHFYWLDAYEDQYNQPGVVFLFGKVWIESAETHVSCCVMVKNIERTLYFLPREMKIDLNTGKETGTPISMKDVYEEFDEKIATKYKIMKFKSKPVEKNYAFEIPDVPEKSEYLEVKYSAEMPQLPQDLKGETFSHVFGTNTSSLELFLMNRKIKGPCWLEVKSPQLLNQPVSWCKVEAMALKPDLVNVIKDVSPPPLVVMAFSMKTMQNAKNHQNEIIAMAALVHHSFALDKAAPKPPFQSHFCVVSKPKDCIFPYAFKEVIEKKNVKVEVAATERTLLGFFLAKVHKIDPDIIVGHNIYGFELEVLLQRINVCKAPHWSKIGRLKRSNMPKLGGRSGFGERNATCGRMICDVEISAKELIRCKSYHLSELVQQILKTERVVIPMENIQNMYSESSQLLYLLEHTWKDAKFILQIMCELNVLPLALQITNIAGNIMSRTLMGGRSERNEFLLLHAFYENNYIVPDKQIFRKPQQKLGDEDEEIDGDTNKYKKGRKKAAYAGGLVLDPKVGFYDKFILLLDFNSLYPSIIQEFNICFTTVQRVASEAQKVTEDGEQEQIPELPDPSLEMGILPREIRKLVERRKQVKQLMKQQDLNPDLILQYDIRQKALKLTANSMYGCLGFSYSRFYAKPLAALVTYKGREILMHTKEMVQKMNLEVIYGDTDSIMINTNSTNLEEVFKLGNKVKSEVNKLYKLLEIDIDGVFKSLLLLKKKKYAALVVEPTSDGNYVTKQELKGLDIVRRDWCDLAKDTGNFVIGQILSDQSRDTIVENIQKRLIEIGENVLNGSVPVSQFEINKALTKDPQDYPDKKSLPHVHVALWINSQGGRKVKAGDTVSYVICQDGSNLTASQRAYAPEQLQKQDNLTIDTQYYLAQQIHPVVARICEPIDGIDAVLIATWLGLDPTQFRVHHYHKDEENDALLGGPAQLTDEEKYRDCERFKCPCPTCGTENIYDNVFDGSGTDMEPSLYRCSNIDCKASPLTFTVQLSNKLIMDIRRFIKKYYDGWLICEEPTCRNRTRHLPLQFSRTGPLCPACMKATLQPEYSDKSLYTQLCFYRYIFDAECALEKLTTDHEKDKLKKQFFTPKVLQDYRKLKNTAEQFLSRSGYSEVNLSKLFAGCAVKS
Kind of data set: Inhibition of DNA polymerase alpha (unknown origin).

Data set [9] can be described thus: Effective half life in human. Conditions: in vivo, read-out: t1/2eff (converted).
The nature of data set [10]: Apparent volume of distribution in Sprague-Dawley rat at 1 mg/kg, iv. Format: ADME, organism-based. Conditions: in vivo.

Usually Tmax stands for the time from dosing to the highest level. The term AUC denotes the area under the concentration-time curve, a measure of exposure. High values mean more exposure, low ones less exposure. Consider `Cc1c(-c2ccc(O)cc2)n(Cc2ccc(OCCN3CCCCCC3)cc2)c2ccc(O)cc12` [BAZEDOXIFENE], for which the Vd in data set [1] was found to be 14.7 L/kg. In addition, the time to peak (Tmax) in data set [2] stood at 2.5 h. Further, the AUC in [3] worked out at 71 ng·h/mL.
What is called IC50 is the point on the concentration scale where inhibition reaches its midpoint. Low readings indicate higher potency, high ones lower potency. `C=CC(=O)Nc1cc(Nc2nccc(-c3cn(C)c4ccccc34)n2)c(OC)cc1N(C)CCN(C)C` [OSIMERTINIB]: the Vd in data set [4] is 918 L. In addition, the IC50 in [5] is 27.6 nM. Further, the half-life in [6] is 48 h. For the same compound, in data set [7], the Fu amounted to 5%.
`CNCc1ccc(-c2[nH]c3cc(F)cc4c3c2CCNC4=O)cc1` [RUCAPARIB] gave a half-life in data set [6] of 17 h. In data set [8], this compound gave an IC50 of 0.4 nM.
What is called Vd/F is the apparent distribution volume after extravascular dosing. As to `CC(C)(CO)c1cc2cc(NC(=O)C3(c4ccc5c(c4)OC(F)(F)O5)CC3)c(F)cc2n1C[C@@H](O)CO` [TEZACAFTOR], the half-life in data set [9] is 25.1 h. The Vd/F in data set [10] worked out at 82 L.

The values are drawn from ChEMBL document CHEMBL5344475, “Indole-containing pharmaceuticals: targets, pharmacological activities, and SAR studies” (RSC Med Chem, 2024).
